We go through three compounds from publication PMC5620571, “Pharmacokinetic Analysis of an Oral Multicomponent Joint Dietary Supplement (Phycox®) in Dogs” (Pharmaceutics, 2017).

SMILES strings stand for the structures. “Also recorded” adds a separate entry of the source. Where a name gives a salt, the structure may show the parent alone. Read-outs that look alike come from different tables or passages of the source.

A short description of data set [1]: Single-dose oral pharmacokinetic study of one Phycox soft chew in dogs (serum, LC-MS/MS, non-compartmental analysis). The data set is classed as in vivo, dog (female Beagle). The note with it: for serum concentration of polyphenol (aglycone or glucuronidated metabolite): single PO Phycox soft chew (36.1 μg ±hesperetin, 0.554 μg trans-resveratrol, 2.88 μg ±naringenin), serum 0-24 h; for half-life: po, 450 mg. The text has this:
The animal research protocol used in this study was reviewed and approved by the Institutional Animal Care and Use Committee at Washington State University (protocol #04224-011, approved 21 December 2014). Four commercially available purpose-bred intact female research Beagles from an Association for Assessment and Accreditation of Laboratory Animal Care (AALAC) certified source were used for the study. All dogs were 2 years of age at the onset of the study with a weight of 9.25 ± 0.81 kg (mean ± SD; range 8.4–10.2 kg). Animals were housed in AALAC approved facilities for animal research for 80 days acclimating to their environment prior to the initiation of the study. All dogs were fed a standard canine formulation (Proactive Health™ Adult Minichunks, IAMS, Mason, OH, USA) ration twice daily and housed in a temperature and humidity controlled room; 21 °C and 30%, respectively, while under 12 h light cycle conditions. The dogs underwent daily examinations and weekly body weight assessments. All animals were also given daily enrichment activities before, during, and after the study. At study termination all animals were transferred to an unrelated study. Dogs were fasted 12 h prior to the study but provided free access to water. Each subject was administered a single Phycox® soft chew and a series of blood samples (3 mL) were collected at 0, 1, 2, 4, 6, 8, 12 and 24 h post-dose via saphenous or cephalic vein depending on the temperament of the animals. Animals were fed after 2 h post-dose. Following centrifugation of the blood samples, serum was removed and stored at −80 °C until analyzed. One hundred microliters of serum from each PK sample was placed into a microcentrifuge tube. To all samples, except 0 h, 40 μL of 0.1 μg/mL internal standard stock solution (caffeine) was added along with 1.0 mL of cold acetonitrile (−20 °C) to precipitate proteins. The samples were vortexed and centrifuged at 20,160× g for 5 min. […] The residues were reconstituted with 50 μL of starting mobile phase (0.05% aqueous formic acid), vortexed and centrifuged at 20,160× g for 5 min. The supernatants were transferred to 30 kDa centrifugal filter tubes and centrifuged for 30 min at 9000× g. The filtrate was transferred to HPLC vials and 5 μL were injected into the LC-MS/MS system. The PK serum samples were separated into two sets of microcentrifuge tubes (total and aglycone) with 100 μL of serum in each. To the total samples, 20 μL β-glucuronidase (500 U/mL in 6.8 pH phosphate buffer) was added and incubated for 2 h at 37 °C [28]. To all samples except 0 h, 20 μL of 10 μg/mL internal standard stock solution (±liquiritigenin) was added along with 1.0 mL of cold acetonitrile (−20 °C) to precipitate proteins. […] The residues were reconstituted with 50 μL of mobile phase (50% aqueous methanol with 0.1% formic acid), vortexed and centrifuged at 20,160× g for 5 min. The supernatants were transferred to 30 kDa centrifugal filter tubes and centrifuged for 30 min at 9000× g. The filtrate was transferred to HPLC vials and 5 μL were injected into the LC-MS/MS system. PK samples were analyzed using Phoenix WinNonlin software (ver. 6.3; Certara, St. Louis, MO, USA) to derive the pharmacokinetic parameters for each individual dog and expressed as mean ± SEM. A non-compartmental analysis was used to calculate the PK parameters including area under the curve (AUC0–∞), the peak serum concentration (Cmax), time to reach peak serum concentration (Tmax), the apparent volume of distribution (Vd/F), the elimination half-life (t1/2), and the apparent clearance (CL/F). The elimination rate constant (KE), was estimated by log-linear regression of the serum concentrations. The AUC0–∞ was calculated using the long-linear trapezoidal rule for data from time of dosing to the last measured concentration plus the quotient of the last measured concentration divided by KE/2.303. The concentration time points of the animals were subjected to non-compartmental modeling.

Data set [2] is described as follows: Oral pharmacokinetics of glucosamine HCl in Beagle dogs (Adebowale et al.). Conditions: longer than in this study (Phycox soft chew, 450 mg). The data set is classed as in vivo. Here is the method:
Two previous studies have evaluated the oral pharmacokinetics of glucosamine HCl in Beagle dogs. Adebowale et al. administered 1500–2000 mg of glucosamine HCl to eight dogs and used non-compartmental modeling to derive PK parameters. […] The serum-concentration time curve reported in Adebowale et al. was similar in shape to the curve reported in this study but the half-lives were reported to be between 1.52–2.4 h, which is […] than the half-live reported in this study. […] The method employed by the study utilized a validated HPLC method with a limit of quantification of 1.25 μg/mL and involved pre-column derivatization. The amount of glucosamine administered in the present study was 3.3 to 4.4 less than those administered in the study by Adebowale et al. but the method employed in this study was 250 times more sensitive allowing for detection of much smaller concentrations of glucosamine. Various LC-MS-MS assays are validated in the literature across various fluids and species. […] The second report of glucosamine HCl PK in dogs administered 1000 mg of glucosamine HCl to four male dogs using two commercially available chewable tablet formulations. […] The method employed by the study used a modified HPLC method with a limit of quantification of 0.05 μg/mL (10 fold higher limit of quantitation than the method presented in this study) and involved pre-column derivatization. […]

Details of data set [3]: method as in PMID 12214321. Conditions: cited from earlier work.
On the set-up of data set [4]: method as in PMID 26205697. Conditions: cited from earlier work.
On the set-up of data set [5]: method as in PMID 19647388. Conditions: Beagle dogs; cited from earlier work.
Setting [6] is: female, Beagle, dog, glucosamine HCl 450 mg in one Phycox soft chew PO, fasted dogs, serum, n = 4, mean ± SEM.
[7] abbreviates: 1000 mg glucosamine HCl, four male dogs, two commercially available chewable tablet formulations.

For `COc1ccc(C2CC(=O)c3c(O)cc(O)cc3O2)cc1O` (racemic) [±hesperetin], the “serum concentration of polyphenol (aglycone or glucuronidated metabolite)” value in data set [1] (dogs, LOQ 5 ng/mL) is on record as “no compounds were detected at quantifiable concentrations”; in data set [1] (dogs, LOQ 5 ng/mL, listed as ±Hesperetin), “not detected at quantifiable concentrations”.
Consider `N[C@H]1C(O)O[C@H](CO)[C@@H](O)[C@@H]1O` (stereo partly drawn) [glucosamine, glucosamine hydrochloride], for which, in data set [1] (female, Beagle, dog, serum, glucosamine HCl 450 mg in one Phycox soft chew PO, dogs, serum, read-out: apparent t1/2), the half-life was around 35 min. In addition, the half-life in data set [1] (female, Beagle, dog, serum, glucosamine HCl 450 mg in one Phycox soft chew PO, fasted dogs, serum, n = 4, mean ± SEM, read-out: t1/2 (converted)) is 35 ± 2.04 min. Moreover, in data set [1] (setting [6]), the AUC(0-inf) was found to be 20400 ± 2340 ng·h/mL; the CL/F – broadly, the apparent clearance, not corrected for the fraction that reaches the circulation – is 42.7 mL/min/kg; the Cmax amounted to 9690 ± 1140 ng/mL; the Tmax stood at 120 min. In data set [1] (setting [6]), the Vd/F (in general, the apparent distribution volume after extravascular dosing) came to 2.1 ± 0.254 L/kg. In addition, the “time post-dose up to which glucosamine was detected in serum” value in data set [1] (single PO Phycox soft chew, dogs, samples collected for 24 h, LOQ 5 ng/mL) is “up to 8 h”. The “half-life of Adebowale et al. relative to the half-life of this study” value in data set [2] is 3–5 times. Besides, the half-lives in data set [3] (1500–2000 mg glucosamine HCl oral, eight Beagle dogs) was 1.52 to 2.4 h. In data set [3] (after 4 h post-dose, HPLC, LOQ 1.25 μg/mL), the detection of glucosamine result was “not able to detect”. Besides, in data set [4] (setting [7]), the Cmax is 1800 to 2600 ng/mL and the Tmax is 252 to 300 min. In addition, in data set [4] (at 12 h post-dose, HPLC, LOQ 0.05 μg/mL), the detection of glucosamine entry is listed as “not able to detect”. Besides, in data set [5], the “absorption of glucosamine co-administered with chitosan compared to glucosamine alone” value is listed as “increased”.
For the compound `Oc1ccc(/C=C/c2cc(O)cc(O)c2)cc1` [trans-resveratrol], in data set [1] (dogs, LOQ 5 ng/mL), the “serum concentration of polyphenol (aglycone or glucuronidated metabolite)” value is “not detected at quantifiable concentrations; also recorded: no compounds were detected at quantifiable concentrations”.
